pIC50: −log10 of the molar value. Read-outs that look alike come from different tables or passages of the source.
What was measured:
PANC-1 = experiment: MTT cytotoxicity (PDT and dark), PANC-1; type: cell-based, Human; settings: Homo sapiens, light or radiation study, 3 h exposure, 660 nm laser 0.5 J/cm^2, MTT after 24 h
Text: (§1) B16F10 (KCLB80008), MIA PaCa-2 (KCLB21420), PANC-1 (KCLB21469), HT-29 (KCLB30038), AsPC-1 (KCLB21682), and Raw 264.7 (KCLB40071) cells were procured from the Korean Cell Line Bank (KCLB, Seoul, Republic of Korea). AsPC-1 and RAW264.7 were thawed and maintained in RPMI-1640 media (Life Technologies corporation, Carlsbad, CA, USA) supplemented with 10% fetal bovine serum (Life Technologies corporation, USA) and 1% penicillin and streptomycin (Life Technologies corporation, USA), while MIA PaCa-2, PANC-1, HT-29, and B16F10 cell lines were cultured in DMEM (Life technologies corporation, USA) containing 10% fetal bovine serum and 1% penicillin and streptomycin. All the cells were cultured at 37 °C in a 5% CO2 incubator.
(§2) After seeding B16F10 or MIA PaCa-2 at a density of 5 × 10^3 cells/well and PANC-1, HT-29, or AsPC-1 at a density of 1 × 10^4 cells/well in 96-well plates, the cells were incubated overnight at 37 °C in a CO2 incubator. The cells were exposed to different doses of either chlorin e6 or rhodin g7 7^1-ethyl ester (0, 2.5, 5, 10, 20, 40, and 80 µM) for 3 h. After the incubation, the cells were either subjected to a 660 nm laser with a power density of 50 mW (0.5 J/cm^2) or not and were further incubated for 24 h at 37 °C. Moreover, the MTT assay was used to analyze the cell viability. The absorbance values of 540 nm were then measured using a microplate reader (Multiskan GO, Thermo Fisher Scientific, Oy, Ratastie 2, FI-01620 Vantaa, Finland).

[1] = MTT cytotoxicity (PDT and dark), PANC-1; type: cell-based, Human; settings: human, PANC-1 cells, no illumination, MTT after 24 h
Text: as §1, §2

ICR mice = tested on: ICR mice; set-up: method as in PMID 30609768; settings: chlorin e6, greatly declined at 24 h; cited from earlier work
[2] = tested on: B16F10, MIA PaCa-2, PANC-1, HT-29, AsPC-1; experiment: MTT cytotoxicity, statements over all cell lines of the panel; type: cell-based
Text: as §1
as §2, with “The cells were exposed to different doses of either chlorin e6 or rhodin g7 7^1-ethyl ester (0, 2.5, 5, 10, 20, 40, and 80 µM) for 3 h.” left out

[3] = as above; type: cell-based; settings: mouse (B16F10), human (MIA PaCa-2, PANC-1, HT-29, AsPC-1), B16F10, MIA PaCa-2, PANC-1, HT-29 and AsPC-1 cells, read-out: cellular viability
Text: as §1
as §2, with “The cells were exposed to different doses of either chlorin e6 or rhodin g7 7^1-ethyl ester (0, 2.5, 5, 10, 20, 40, and 80 µM) for 3 h.” left out

MIA PaCa-2 cells = experiment: Cellular uptake (plate reader and FOBI), MIA PaCa-2; type: cell-based, Human; settings: 3 h; for fluorescence intensity of treated cells compared to control (uptake): MIA PaCa-2, 100 μΜ
Experimental: A quantitly of 5 × 10^5 of MIA PaCa-2 and 2 × 10^5 of BV2 cells per well were seeded in a 6-well plate and were treated with or without chlorin e6 or rhodin g7 7^1-ethyl ester (10 and 100 μΜ). After 3 h, the cells were harvested and washed twice with 1 × phosphate buffered saline (DPBS) to remove the remaining chlorin e6 or rhodin g7 7^1-ethyl ester from the culture media and cell surfaces. The cells from each well were resuspended in 1 mL of 1 × DPBS and measured using FOBI and a plate reader. chlorin e6 or rhodin g7 7^1-ethyl ester-treated cells were divided into triplicate wells of a black-walled 96-well plate, each containing 100 µL. The measurement was taken immediately after aliquoting using a Spark Multimode Microplate Reader (Tecan Trading AG, Männedorf, Switzerland) for spectroscopy. The fluorescence was measured using excitation and emission peaks of 405 nm and 500–800 nm. For the FOBI analysis, 700 µL of chlorin e6 or rhodin g7 7^1-ethyl ester-treated cells was added to the e-tubes, and bioimaging was performed immediately using the fluorescence-labeled organism bioimaging instrument (FOBI) system (Cellgentek, Daejeon, Republic of Korea). Each image was exposed for 0.3 s, with a 405 nm wavelength LED, and an emmission light of 502 nm. The results were further quantitatively measured using the “NEOimage FOBI” software.

[4] = Singlet oxygen photogeneration (DPBF quenching); settings: for change of DPBF absorbance at higher doses: 5 and 10 µM
Experimental: Singlet oxygen photoregeneration was carried out using 1, 3-diphenylisobenzofuran (DPBF) in DMSO. DPBF is a selective ^1O2 acceptor that reacts with ^1O2. The sample solutions of DPBF (50 μM) which contained DPBF only (50 μM, as a control), MB (1, 5, and 10 μM), chlorin e6 (1, 5, and 10 μM), and rhodin g7 7^1-ethyl ester (1, 5, and 10 μM) were prepared under dark conditions. All of the samples were placed in a 96-well plate, which was covered with aluminum foil. The samples were then irradiated (660 nm, 50 mW, 0.5 J/cm^2) for 1 min and 40 s, and after irradiation, the visible spectra of the sample solutions were measured spectrophotometrically. The normalized absorbance of DPBF at 418 nm was measured in these samples. The ^1O2 photo-generation activities of MB, chlorin e6, and rhodin g7 7^1-ethyl ester can be compared with the different absorbance decay of each sample relative to the DPBF control sample.

[5] = complete absence of illumination, read-out: IC50 values dark toxicity, range over cell lines
[6] = light or radiation study, PDT, light dose 0.5 J/cm^2, five cancer cell lines, read-out: IC50 values post illumination, range over cancer cell lines

fluorescence intensity relative to chlorin e6 (uptake) (MIA PaCa-2 cells; MIA PaCa-2, FOBI system, 10 μΜ)	fluorescence intensity relative to chlorin e6 (uptake) (MIA PaCa-2 cells; MIA PaCa-2, FOBI system, 100 μΜ)	fluorescence intensity relative to chlorin e6 (uptake) (MIA PaCa-2 cells; MIA PaCa-2, plate reader, 10 μΜ)	fluorescence intensity relative to chlorin e6 (uptake) (MIA PaCa-2 cells; MIA PaCa-2, plate reader, 100 μΜ)	Structure (SMILES)	pIC50 (PANC-1)	pIC50 [1]	time of maximum fluorescence intensity post injection (ICR mice)	cellular viability ([2]; chlorin e6-PDT, concentrations greater than 59.8 µM, all cell lines)	viability at 7.8 µM ([2]; chlorin e6-PDT, dose of 7.8 µM, all cell lines, vs vehicle-treated control)	pIC50 [2, 5]	pIC50 [2, 6]	viability ([3]; chlorin e6 dark, concentrations as high as 169.2 µM)	viability ([3]; chlorin e6 dark, concentrations up to 729.4 µM, all cell lines)	fluorescence intensity of treated cells compared to control (uptake) (MIA PaCa-2 cells)	change of DPBF absorbance at higher doses [4]	higher cytotoxicity compared to chlorin e6 ([2]; laser 0.5 J/cm^2, majority of the cancer cell lines)	cellular viability ([2]; rhodin g7 7^1-ethyl ester PDT, concentrations higher than 53.7 µM, all cell lines)	viability ([3]; rhodin g7 7^1-ethyl ester dark, concentrations as high as 37.4 µM)	viability ([3]; rhodin g7 7^1-ethyl ester dark, doses as high as 660 µM, all cell lines)	more singlet oxygen compared to chlorin e6 alone ([4]; 1 µM)
–	–	–	–	C=Cc1c(C)c2cc3nc(c(CC(=O)O)c4[nH]c(cc5nc(cc1[nH]2)C(C)=C5CC)c(C)c4C(=O)O)[C@@H](CCC(=O)O)[C@@H]3C [chlorin e6]	4.75	3.52	0 h	10%	≥ 90%	3.25 to 3.60	4.47 to 4.75	≥ 90%	< 10%	significant increase in fluorescence intensity	large increase in DPBF absorbance	–	–	–	–	–
1.02 times	1.3 times	3 times	1.4 times	C=Cc1c(C)c2cc3nc(c(CC(=O)O)c4[nH]c(cc5nc(cc1[nH]2)C(C(=O)OCC)=C5CC)c(C)c4C(=O)O)[C@@H](CCC(=O)O)[C@@H]3C [rhodin g7 7^1-ethyl ester]	5.08	3.55	–	–	–	3.41 to 3.79	4.31 to 5.08	–	–	significant increase in fluorescence intensity	large increase in DPBF absorbance	2 fold	10%	≥ 90%	< 10%	11.12%

Reference: paper PMC11240924, “Isolation, Identification, and Biological Activities of a New Chlorin e6 Derivative” (International Journal of Molecular Sciences, 2024)
